Measured values taken from US20230048132A1, “CYCLIN-DEPENDENT KINASE INHIBITORS” (SPV THERAPEUTICS INC., priority 2018, published 2023).

What was measured:
[1] = biological target: T1, CDK2-CYCLINA (Homo sapiens, UniProt P24941); assay: CDK inhibition assay (microfluidic LabChip, IC50 format); assay type: biochemical; conditions: Table 4a; read-out: CDK2 CyclinA IC50
T1 construct: purchased Millipore

[2] = biological target: CDK4-CYCLIND1 (Homo sapiens, UniProt P11802); assay: as above; conditions: CDK4 CyclinD1 IC50, Table 4a; a second value in parentheses for some compounds
[3] = system: LIXFH HEP-3B; assay: 2D cell proliferation assay (CellTiter-Blue); assay type: cell-based; conditions: Homo sapiens, Hep3B, 72 h, three days of treatment, read-out: abs. IC50
Outline: (§1)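 Cells at 4,000-60,000/well recovered 24 h, then five full-log concentrations up to 100 μM in duplicate for three days at 37 °C. CellTiter-Blue fluorescence (ex 570/em 600 nm) after up to 4 h; T/C% vs untreated controls, relative IC50 and absolute IC50/IC70 by 4-parameter fit.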

[4] = system: LIXAH SNU-398; assay: 2D cell proliferation assay (CellTiter-Blue); assay type: cell-based; conditions: Homo sapiens, 72 h, three days of treatment, read-out: abs. IC50
Outline: as §1

[5] = system: LXFE Calu-1; assay: 2D cell proliferation assay (CellTiter-Blue); assay type: cell-based; conditions: Homo sapiens, 72 h, three days of treatment, read-out: abs. IC50
Outline: as §1

[6] = system: MEXF M14; assay: 2D cell proliferation assay (CellTiter-Blue); assay type: cell-based; conditions: 72 h, three days of treatment, read-out: abs. IC50
Outline: as §1

[7] = system: LYXFNH Daudi; assay: 2D cell proliferation assay (CellTiter-Blue); assay type: cell-based; conditions: Homo sapiens, 72 h, three days of treatment, read-out: abs. IC50
Outline: as §1

[8] = system: MAXFTN MDA-MB-468 (ER−); assay: 2D cell proliferation assay (CellTiter-Blue); assay type: cell-based; conditions: Homo sapiens, 72 h, three days of treatment, read-out: abs. IC50
Outline: as §1

[9] = system: PRXF 22Rv1; assay: 2D cell proliferation assay (CellTiter-Blue); assay type: cell-based; conditions: Homo sapiens, 72 h, three days of treatment, read-out: abs. IC50
Outline: as §1

[10] = system: MAXFLB MCF7 (ER+); assay: 2D cell proliferation assay (CellTiter-Blue); assay type: cell-based; conditions: Homo sapiens, 72 h, three days of treatment, read-out: abs. IC50
Outline: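 Fluorescence from CellTiter-Blue reduction served as the viability signal after cells had been treated for three days with up to 100 μM compound (five log-spaced doses). Values are IC50 from a four-parameter curve fit of treated/control signal.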

[11] = system: MAXFTN BT-549; assay: 2D cell proliferation assay (CellTiter-Blue); assay type: cell-based; conditions: Homo sapiens, 72 h, three days of treatment, read-out: abs. IC50
Outline: as §1

[12] = system: MAXFHER BT-474; assay: 2D cell proliferation assay (CellTiter-Blue); assay type: cell-based; conditions: Homo sapiens, 72 h, three days of treatment, read-out: abs. IC50
Outline: as §1

[13] = system: UXF EFE-184; assay: 2D cell proliferation assay (CellTiter-Blue); assay type: cell-based; conditions: Homo sapiens, 72 h, three days of treatment, read-out: abs. IC50
Outline: as §1

[14] = system: CXF HCT-15; assay: 2D cell proliferation assay (CellTiter-Blue); assay type: cell-based; conditions: Homo sapiens, 72 h, three days of treatment, read-out: abs. IC50
Outline: as §1

[15] = system: MEXF A-375; assay: 2D cell proliferation assay (CellTiter-Blue); assay type: cell-based; conditions: Homo sapiens, 72 h, three days of treatment, read-out: abs. IC50
Outline: as §1

[16] = system: OVXF SK-OV-3; assay: 2D cell proliferation assay (CellTiter-Blue); assay type: cell-based; conditions: Homo sapiens, 72 h, three days of treatment, read-out: abs. IC50
Outline: as §1

[17] = system: CXF Caco-2; assay: 2D cell proliferation assay (CellTiter-Blue); assay type: cell-based; conditions: Homo sapiens, 72 h, three days of treatment, read-out: abs. IC50
Outline: as §1

[18] = biological target: T2, CDK9-CYCLINT1 (Homo sapiens, UniProt P50750); assay: CDK inhibition assay (microfluidic LabChip, IC50 format); assay type: biochemical; conditions: Table 4a; read-out: CDK9 CyclinT1 IC50
T2 construct: purchased Carna

[19] = system: all cell lines tested; assay: 2D cell proliferation assay, geometric mean over the cell line panel; assay type: cell-based; conditions: Table 5 upper part; geometric mean over the 47-line panel; read-out: Geomean abs. IC50 value
Outline: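 Cells plated at 4,000-60,000/well, 24 h recovery, then five full-log concentrations up to 100 μM in duplicate for three days at 37 °C. CellTiter-Blue fluorescence (ex 570/em 600 nm); 4-parameter fits give relative IC50, absolute IC50/IC70; geometric mean across lines, unresolved values set to tested range limits.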

[20] = biological target: T3, CDK6-CYCLIND3 (Homo sapiens, UniProt Q00534); assay: CDK inhibition assay (microfluidic LabChip, IC50 format); assay type: biochemical; conditions: Table 4a; read-out: CDK6 CyclinD3 IC50
T3 construct: purchased Carna

[21] = Pharmacokinetics after IV bolus; assay type: in vivo; conditions: rat, plasma; rats; IV bolus 30 mg/kg; N = 3
Description: (§2) Nonclinical pharmacokinetic (PK) parameters of lead CDK4/6/9 inhibitors were determined in an intravenous (IV) and oral study (p.o.) conducted in rats. Lead compounds were each administered as a single oral dose at 100 mg/kg or by IV bolus via the caudal vein at the dose of 30 mg/kg. Blood samples were collected at 0.25, 0.5, 1, 2, 4, 8, 12, and 24 hours post i.v. administration, and at 1, 2, 4, 8, 24 and 48 hours post oral administration. Plasma was processed for drug concentration analysis using a validated LCMS/MS method, and PK parameters were calculated by using WinNonlin.

[22] = system: LEXFAL MOLT-4; assay: 2D cell proliferation assay (CellTiter-Blue); assay type: cell-based; conditions: Homo sapiens, 72 h, three days of treatment, read-out: abs. IC50
Outline: as §1

[23] = Pharmacokinetics after oral administration; assay type: in vivo; conditions: rat, plasma, rats
Description: as §2

[24] = oral administration 100 mg/kg, N = 3

T2 sequence (P50750 whole entry): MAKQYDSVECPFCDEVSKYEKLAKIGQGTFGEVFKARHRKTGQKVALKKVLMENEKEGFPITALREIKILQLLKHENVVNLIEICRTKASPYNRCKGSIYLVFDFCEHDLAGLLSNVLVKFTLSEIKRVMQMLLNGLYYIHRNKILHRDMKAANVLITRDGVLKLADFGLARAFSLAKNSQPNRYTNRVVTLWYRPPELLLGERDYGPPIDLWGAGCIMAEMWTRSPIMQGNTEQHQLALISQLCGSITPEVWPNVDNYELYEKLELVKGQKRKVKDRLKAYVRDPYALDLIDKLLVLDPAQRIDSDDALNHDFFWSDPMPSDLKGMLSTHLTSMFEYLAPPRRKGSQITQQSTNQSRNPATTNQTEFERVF
T2 sequence (O60563 whole entry partner): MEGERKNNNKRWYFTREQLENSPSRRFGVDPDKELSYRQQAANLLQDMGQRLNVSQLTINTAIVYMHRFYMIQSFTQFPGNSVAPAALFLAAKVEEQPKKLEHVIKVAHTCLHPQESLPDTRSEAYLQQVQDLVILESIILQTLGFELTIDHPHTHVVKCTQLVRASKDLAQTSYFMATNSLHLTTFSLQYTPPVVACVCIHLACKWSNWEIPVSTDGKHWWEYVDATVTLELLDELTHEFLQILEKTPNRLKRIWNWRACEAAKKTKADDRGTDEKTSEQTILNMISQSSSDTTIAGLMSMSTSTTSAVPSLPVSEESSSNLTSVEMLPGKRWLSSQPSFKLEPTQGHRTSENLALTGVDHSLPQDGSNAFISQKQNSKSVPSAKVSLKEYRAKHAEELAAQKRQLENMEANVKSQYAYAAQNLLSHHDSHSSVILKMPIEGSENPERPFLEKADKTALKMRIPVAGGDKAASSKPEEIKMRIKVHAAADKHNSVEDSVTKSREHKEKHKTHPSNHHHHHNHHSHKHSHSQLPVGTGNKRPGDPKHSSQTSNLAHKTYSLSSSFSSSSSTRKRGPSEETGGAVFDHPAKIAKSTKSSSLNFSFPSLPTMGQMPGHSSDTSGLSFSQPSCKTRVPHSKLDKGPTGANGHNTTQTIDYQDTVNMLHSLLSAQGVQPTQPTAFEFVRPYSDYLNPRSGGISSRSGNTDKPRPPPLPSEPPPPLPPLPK
CDK4-CYCLIND1, sequence (P11802 whole entry): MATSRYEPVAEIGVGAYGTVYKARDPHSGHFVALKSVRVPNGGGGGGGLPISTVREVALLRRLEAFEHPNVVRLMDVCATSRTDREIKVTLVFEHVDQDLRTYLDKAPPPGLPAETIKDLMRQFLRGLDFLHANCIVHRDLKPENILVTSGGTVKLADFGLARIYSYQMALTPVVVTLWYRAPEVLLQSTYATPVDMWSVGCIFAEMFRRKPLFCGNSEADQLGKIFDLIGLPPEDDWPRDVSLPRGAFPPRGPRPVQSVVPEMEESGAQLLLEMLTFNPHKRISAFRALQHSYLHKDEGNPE
CDK4-CYCLIND1, sequence (P24385 whole entry partner): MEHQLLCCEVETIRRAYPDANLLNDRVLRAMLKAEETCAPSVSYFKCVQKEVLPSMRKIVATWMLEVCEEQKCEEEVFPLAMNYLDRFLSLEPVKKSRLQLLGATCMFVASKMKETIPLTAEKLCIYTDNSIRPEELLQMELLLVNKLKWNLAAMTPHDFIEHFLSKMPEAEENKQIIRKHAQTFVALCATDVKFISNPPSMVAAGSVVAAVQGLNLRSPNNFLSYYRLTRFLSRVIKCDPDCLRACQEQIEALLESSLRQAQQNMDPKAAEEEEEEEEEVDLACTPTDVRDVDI
T3 sequence (Q00534 whole entry): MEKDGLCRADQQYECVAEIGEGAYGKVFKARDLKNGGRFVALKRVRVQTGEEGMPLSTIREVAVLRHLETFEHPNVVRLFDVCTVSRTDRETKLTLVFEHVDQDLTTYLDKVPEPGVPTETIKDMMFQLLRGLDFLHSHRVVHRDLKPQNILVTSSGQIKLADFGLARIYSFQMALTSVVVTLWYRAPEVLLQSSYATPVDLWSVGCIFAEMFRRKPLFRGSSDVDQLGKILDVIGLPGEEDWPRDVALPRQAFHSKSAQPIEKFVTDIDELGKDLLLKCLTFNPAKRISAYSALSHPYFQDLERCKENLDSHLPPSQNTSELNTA
T3 sequence (P30281 whole entry partner): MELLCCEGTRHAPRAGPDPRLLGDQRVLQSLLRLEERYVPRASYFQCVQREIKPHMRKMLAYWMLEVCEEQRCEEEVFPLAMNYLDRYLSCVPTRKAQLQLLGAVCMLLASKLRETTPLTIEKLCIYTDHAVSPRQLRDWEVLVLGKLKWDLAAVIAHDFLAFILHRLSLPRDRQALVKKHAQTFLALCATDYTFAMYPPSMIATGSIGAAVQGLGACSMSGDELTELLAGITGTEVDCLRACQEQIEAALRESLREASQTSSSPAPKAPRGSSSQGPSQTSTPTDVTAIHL

IC50 [1] [µM] | IC50 [2] [µM] | IC50 [3] [µM] | IC50 [4] [µM] | IC50 [5] [µM] | IC50 [8] [µM] | IC50 [9] [µM] | IC50 [10] [µM] | IC50 [11] [µM] | IC50 [12] [µM] | IC50 [14] [µM] | IC50 [15] [µM] | IC50 [16] [µM] | IC50 [17] [µM] | IC50 [18] [µM] | IC50 [20] [µM] | Compound | IC50 [6] [µM] | IC50 [13] [µM] | IC50 [19] [µM] | also measured
0.273 | 0.00419 | 3.67 | 0.251 | 5.96 | 0.925 | 0.138 | 1.04 | 2.31 | 5.55 | 2.05 | 0.263 | 8.26 | 23 | 0.0248 | 0.00812 | O=C1NCC[C@@]12Cc1cnc(Nc3ccc(N4CCNCC4)cc3F)nc1N(C1CCCC1)C2=O [Example D146, (S)-8-cyclopentyl-2-((2-fluoro-4-(piperazin-1-yl)phenyl)amino)-5,8-dihydro-7H-spiro[pyrido[2,3-d]pyrimidine-6,3′-pyrrolidine]-2′,7-dione] | 1.58 | 2.08 | 1.24 | IC50 [7]: 0.162 µM
0.127 | 0.00103 | 67.8 | 0.608 | 78.6 | 68.2 | 0.447 | 32 | 16.6 | 67.9 | 29.5 | 0.769 | 76.7 | ≥ 100 | 0.00425 | 0.00188 | CN(C)[C@H]1CCN(c2ccc(Nc3ncc4c(n3)N(C3CCCC3)C(=O)[C@]3(CCNC3=O)C4)nc2)C1 [Example D178, (S)-8-cyclopentyl-2-((5-((S)-3-(dimethylamino)pyrrolidin-1-yl)pyridin-2-yl)amino)-5,8-dihydro-7H-spiro[pyrido[2,3-d]pyrimidine-6,3′-pyrrolidine]-2′,7-dione] | 24.6 | 22.6 | 16.5 | –
0.0675 | 0.00127 | 0.171 | 0.025 | 1.25 | 0.681 | 0.021 | 0.057 | 0.252 | 0.125 | 1.41 | 0.061 | 0.772 | ≥ 100 | 0.00185 | 0.00215 | CN(C)CCOc1ccc(Nc2ncc3c(n2)N(C2CCCC2)C(=O)[C@]2(CCNC2=O)C3)cc1 [Example D179, (S)-8-cyclopentyl-2-((4-(2-(dimethylamino)ethoxy)phenyl)amino)-5,8-dihydro-7H-spiro[pyrido[2,3-d]pyrimidine-6,3′-pyrrolidine]-2′,7-dione] | 0.268 | 0.244 | 0.205 | Cmax [21]: 6200 ng/mL; clearance [21]: 38.3 mL/min/kg; half-life [21]: 2.26 h; IC50 [22]: 0.177 µM; bioavailability ([23]; oral 100 mg/kg versus IV 30 mg/kg, read-out: BIOAVAILABILITY F): 36.3%; AUC [23, 24]: 14200 ng·h/mL; Cmax [23, 24]: 3360 ng/mL; MRT [23, 24]: 2.99 h; half-life [23, 24]: 3.1 h
2.14 | 0.00205 | 78.9 | 6.84 | 48.7 | 72.9 | 1.42 | 29.8 | 19.6 | 81.1 | 22.1 | 0.254 | 59.9 | ≥ 100 | 0.163 | 0.00234 | CC(C)N1CCN(c2ccc(Nc3ncc4c(n3)N(C3CCCC3)C(=O)[C@]3(CCNC3=O)C4)nc2)CC1 [Example D154, (S)-8-cyclopentyl-2-((5-(4-isopropylpiperazin-1-yl)pyridin-2-yl)amino)-5,8-dihydro-7H-spiro[pyrido[2,3-d]pyrimidine-6,3′-pyrrolidine]-2′,7-dione] | 21.4 | 34.6 | 17 | –
